Key:
Experiment in all cases: relative viability (nuclei count vs DMSO), 5 days (fraction); higher = more cells survive
Wnt-C59 + Pemetrexed = compound: CC1=NC=CC(=C1)C2=CC=C(C=C2)CC(=O)NC3=CC=C(C=C3)C4=CN=CC=C4 [Wnt-C59] + Nc1nc2[nH]cc(CCc3ccc(C(=O)N[C@@H](CCC(=O)O)C(=O)O)cc3)c2c(=O)[nH]1 [Pemetrexed] (partner 0.2 µM)
Procedure, shortened: (§1)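 Lung cancer cell lines were pin-tool dosed in 1536-well plates on the day after seeding, with either a lone drug or a fixed anchor-drug dose plus five library-drug doses (not always all listed) in √10 steps. Nuclei were counted on 4× images after 5 days. Relative viability is the ratio of treated-well to vehicle-well nuclei counts, with each value a median of duplicate plates.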

Wnt-C59 + Decitabine = compound: CC1=NC=CC(=C1)C2=CC=C(C=C2)CC(=O)NC3=CC=C(C=C3)C4=CN=CC=C4 [Wnt-C59] + Nc1ncn([C@H]2C[C@H](O)[C@@H](CO)O2)c(=O)n1 [Decitabine] (partner 2 µM)
Procedure, shortened: as §1

Lapatinib + OSI-027 = compound: CS(=O)(=O)CCNCc1ccc(-c2ccc3ncnc(Nc4ccc(OCc5cccc(F)c5)c(Cl)c4)c3c2)o1 [Lapatinib] + COc1cccc2cc(-c3nc([C@H]4CC[C@H](C(=O)O)CC4)n4ncnc(N)c34)[nH]c12 [OSI-027] (partner 0.5 µM)
Procedure, shortened: as §1

Lapatinib + Dasatinib = compound: CS(=O)(=O)CCNCc1ccc(-c2ccc3ncnc(Nc4ccc(OCc5cccc(F)c5)c(Cl)c4)c3c2)o1 [Lapatinib] + Cc1nc(Nc2ncc(C(=O)Nc3c(C)cccc3Cl)s2)cc(N2CCN(CCO)CC2)n1 [Dasatinib] (partner 0.075 µM)
Procedure, shortened: as §1

Cell Line: UMC-11
- relative viability (Wnt-C59 + Pemetrexed; first compound 0.001 µM): 0.756
- relative viability (Wnt-C59 + Pemetrexed; first compound 0.01 µM): 0.821
- relative viability (Wnt-C59 + Pemetrexed; first compound 0.03162 µM): 0.874
- relative viability (Wnt-C59 + Pemetrexed; first compound 0.1 µM): 0.76
- relative viability (Wnt-C59 + Decitabine; first compound 0.001 µM): 0.572
- relative viability (Wnt-C59 + Decitabine; first compound 0.01 µM): 0.607
- relative viability (Wnt-C59 + Decitabine; first compound 0.03162 µM): 0.559
- relative viability (Wnt-C59 + Decitabine; first compound 0.1 µM): 0.72
- relative viability (Lapatinib + OSI-027; first compound 0.02 µM): 0.461
- relative viability (Lapatinib + OSI-027; first compound 0.06325 µM): 0.427
- relative viability (Lapatinib + OSI-027; first compound 0.2 µM): 0.582
- relative viability (Lapatinib + OSI-027; first compound 0.6325 µM): 0.464
- relative viability (Lapatinib + OSI-027; first compound 2 µM): 0.465
- relative viability (Lapatinib + Dasatinib; first compound 0.02 µM): 0.45
- relative viability (Lapatinib + Dasatinib; first compound 0.06325 µM): 0.404
- relative viability (Lapatinib + Dasatinib; first compound 0.2 µM): 0.52
- relative viability (Lapatinib + Dasatinib; first compound 0.6325 µM): 0.453
- relative viability (Lapatinib + Dasatinib; first compound 2 µM): 0.421
